# Results reported in US20260159486A1, “BENZO[H]QUINAZOLINE-4-AMINE DERIVATIVES FOR THE TREATMENT OF CANCER” (Redona Therapeutics, Inc., priority 2021, published 2026).
# Key:
# MDA-MB-231 cells = assay: MDA-MB-231 proliferation assay; type: cell-based; details: YO-PRO-1 Iodide readout
# Source text: (§1) MDA-MB-231 and CAL-51 Proliferation Assay
# (§2) Cells (MDA-MB-231 (American Type Culture Collection (ATCC), #HTB-26) or CAL-51 (Deutsche Sammlung von Mikroorganismen und Zellkulturen (DSMZ), #ACC302) as applicable) were cultivated in DMEM High Glucose (4.5 g/L) with L-Glutamine (BioConcept, cat. no. 1-26F03-I) supplemented with 1% Na-pyruvate (Sigma, cat. no. S8636), 1% Penicillin-Streptomycin (BioConcept, cat. no. 4-01F00H), and 10% FBS (Sigma, cat. no. F9665) using standard techniques. Cells were seeded in black, clear-bottom 384 well plates for tissue culture (Greiner Bio-One, cat. no. 781091) at a density of 750 cells per well in 20 μL medium and the plates were incubated overnight at 37° C. with 5% CO2 prior to treatment. Experimental compounds were serially diluted in DMSO to 200× the desired final concentrations. The solutions were then diluted 1:40 with culture medium and 5 μL aliquots were mixed into the wells containing the cells. The final concentration of DMSO was 0.5%. The plates were incubated for 72 hours and cell numbers were then measured using YO-PRO™-1 Iodide (ThermoFisher Scientific, cat. no. Y3603) essentially as recommended by the manufacturer. Briefly, a 12.5 μM solution of YO-PRO™_1 Iodide in 5× YO—PRO buffer (100 mM Na-citrate, 130 mM NaCl, pH 4) was combined with an equal volume of lysis buffer (0.6% NP-40, 30 mM EDTA, 30 mM EGTA, 0.33× YO—PRO buffer) and 12.5 μL of the mixture were dispensed into each well. The plates were incubated at room temperature in the dark for 30 minutes. Fluorescence intensity signals were then measured on a Synergy 4 reader (BioTek) using 485/20 nm and 530/25 nm filters for the excitation and emission, respectively. Relative proliferation values were calculated by normalizing the raw data using DMSO-treated cells (100% proliferation) and the signals obtained from cells that were evaluated at the time of compound addition (0% proliferation). The concentration-response data were fitted to a sigmoidal 4-parameter logistic model with the maximum constrained to 100%. GI50 values were calculated from the curves as the compound concentrations reducing proliferation to 50%.
# CAL-51 cells = assay: CAL-51 proliferation assay; type: cell-based; details: YO-PRO-1 Iodide readout
# Source text: as §1, §2
# recombinant human CLK3 = biological target: T1, recombinant human CLK3 (Homo sapiens, UniProt P49761); assay: CLK3 kinase assay (LANCE Ultra); type: biochemical; details: CLK3 0.5 nM, ATP 300 μM, 3 hours at 30° C.
# T1 construct: purchased Thermo Fisher Scientific PV3826
# T1 sequence (P49761 whole entry): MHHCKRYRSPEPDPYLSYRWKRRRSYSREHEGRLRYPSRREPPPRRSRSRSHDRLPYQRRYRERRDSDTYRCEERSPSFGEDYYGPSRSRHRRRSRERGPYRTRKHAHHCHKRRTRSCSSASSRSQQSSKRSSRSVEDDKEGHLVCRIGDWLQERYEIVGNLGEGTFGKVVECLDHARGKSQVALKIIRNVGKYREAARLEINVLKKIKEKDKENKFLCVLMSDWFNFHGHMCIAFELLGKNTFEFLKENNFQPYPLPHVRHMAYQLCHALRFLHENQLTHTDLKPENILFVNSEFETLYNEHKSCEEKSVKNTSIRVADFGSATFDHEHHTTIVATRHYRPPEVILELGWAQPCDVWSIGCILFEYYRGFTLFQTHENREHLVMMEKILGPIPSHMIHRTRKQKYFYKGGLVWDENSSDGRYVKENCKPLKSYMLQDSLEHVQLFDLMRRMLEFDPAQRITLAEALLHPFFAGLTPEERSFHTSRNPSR
# Experimental: CLK3 kinase activity was measured using the LANCE® Ultra technology (PerkinElmer) essentially as recommended by the supplier. Briefly, 2.5 μL of test sample at 4× the desired final concentration in 4% DMSO were dispensed into white, low volume, round bottom, 384 well plates (Corning, cat. no. 4512). 5 μL of a mixture containing recombinant human CLK3 (Thermo Fisher Scientific, cat. no. PV3826) and the labeled peptide substrate ULight™-CREBtide (PerkinElmer, cat. no. TRF0107) prepared in 1.33× kinase buffer (Thermo Fisher Scientific, cat. no. PV3189) were then added. Finally, the reactions were started by adding 2.5 μL of a 4× solution of ATP in kinase buffer. The plates were sealed with adhesive foils and incubated for 3 hours at 30° C. in the dark. The final concentrations of CLK3, ULight™-CREBtide, and ATP were 0.5 nM, 50 nM, and 300 μM, respectively. 5 μL of 40 mM EDTA were then added to terminate the reactions. The Eu-anti-phospho-CREB antibody (PerkinElmer, cat. no. TRF0200) diluted in LANCE® detection buffer (PerkinElmer, cat. no. CR97) was then added to a final concentration of 2 nM and the reactions were incubated for 1 hour at room temperature in the dark. The signals were measured using a Synergy 4 reader (BioTek) with a 320/80 nm filter for the excitation and 620/10 nm and 665/8 nm filters for the donor and acceptor emission, respectively. Relative inhibition values were calculated by normalizing the raw data using solvent control wells (0% inhibition) and wells that received no ATP (100% inhibition). IC50 values were calculated by fitting the concentration-response data to a sigmoidal 4-parameter logistic model. IC50 values for CLK3 are determined from duplicate measurements at ten different concentrations (serial 1:3 dilutions).
Structure (SMILES),"GI50 (MDA-MB-231 cells; Homo sapiens, MDA-MB-231, 72 h) [nM]",IC50 (recombinant human CLK3) [nM],GI50 (MDA-MB-231 cells; 72 hours) [nM],"GI50 (CAL-51 cells; Homo sapiens, CAL-51, 72 h) [nM]",GI50 (CAL-51 cells; 72 hours) [nM]
"CN(c1c(O[C@H]2CC[C@H](N)CC2)ccc2c1CC(C)(C)c1c(N)ncnc1-2)S(=O)(=O)CCC(=O)O [Example 69, 3-[[4-amino-8-(trans-4-aminocyclohexoxy)-5,5-dimethyl-6H-benzo[h]quinazolin-7-yl]-methyl-sulfamoyl]propanoic acid]",> 2000,< 30,–,> 2000,–
"CC1(C)Cc2c(ccc(O[C@H]3CC[C@H](N)CC3)c2NS(=O)(=O)CCO)-c2ncnc(N)c21 [Example 42, N-[4-amino-8-(trans-4-aminocyclohexoxy)-5,5-dimethyl-6H-benzo[h]quinazolin-7-yl]-2-hydroxy-ethanesulfonamide]",> 2000,30 to 100,–,> 2000,–
"CN(CCC(=O)O)c1c(O[C@H]2CC[C@H](N)CC2)ccc2c1CC(C)(C)c1c(N)ncnc1-2 [Example 85, 3-[[4-amino-8-(trans-4-aminocyclohexoxy)-5,5-dimethyl-6H-benzo[h]quinazolin-7-yl]-methyl-amino]propanoic acid]",> 2000,30 to 100,–,> 2000,–
"CC(=O)NCCN(C)c1c(O[C@H]2CC[C@H](N)CC2)ccc2c1CC(C)(C)c1c(N)ncnc1-2 [Example 38, N-[2-[[4-amino-8-(trans-4-aminocyclohexoxy)-5,5-dimethyl-6H-benzo[h]quinazolin-7-yl]-methyl-amino]ethyl]acetamide]",> 2000,30 to 100,–,100 to 2000,–
"CNc1c(O[C@H]2CC[C@H](N)CC2)ccc2c1CC(C)(C)c1c(N)ncnc1-2 [Example 68, 8-(trans-4-aminocyclohexoxy)-N7,5,5-trimethyl-6H-benzo[h]quinazoline-4,7-diamine]",100 to 2000,30 to 100,–,< 100,–
"CN(CCO)c1c(O[C@H]2CC[C@@H](N)CC2)ccc2c1CC(C)(C)c1c(N)ncnc1-2 [Example 24, 2-[[4-amino-8-(cis-4-aminocyclohexoxy)-5,5-dimethyl-6H-benzo[h]quinazolin-7-yl]-methyl-amino]ethanol]",< 100,< 30,–,< 100,–
"CCCN(CCO)c1c(O[C@H]2CC[C@@H](N)CC2)ccc2c1CC(C)(C)c1c(N)ncnc1-2 [Example 23, 2-[[4-amino-8-(cis-4-aminocyclohexoxy)-5,5-dimethyl-6H-benzo[h]quinazolin-7-yl]-propyl-amino]ethanol]",100 to 2000,< 30,–,100 to 2000,–
"CC1(C)Cc2c(ccc(O[C@H]3CC[C@H](N)CC3)c2NC(=O)CO)-c2ncnc(N)c21 [Example 45, N-[4-amino-8-(trans-4-aminocyclohexoxy)-5,5-dimethyl-6H-benzo[h]quinazolin-7-yl]-2-hydroxy-acetamide]",> 2000,101 to 1000,–,> 2000,–
"CC1(C)Cc2c(ccc(O[C@H]3CC[C@H](N)CC3)c2N2CCC(C#N)C2)-c2ncnc(N)c21 (single isomer, unassigned) [Example 50, 1-[4-amino-8-(trans-4-aminocyclohexoxy)-5,5-dimethyl-6H-benzo[h]quinazolin-7-yl]pyrrolidine-3-carbonitrile]",–,< 30,< 100,–,< 100
"COc1ccc2c(c1NCC[C@@H]1CNC(=O)O1)CC(C)(C)c1c(N)ncnc1-2 [Example 89, (5R)-5-[2-[(4-amino-8-methoxy-5,5-dimethyl-6H-benzo[h]quinazolin-7-yl)amino]ethyl]oxazolidin-2-one]",100 to 2000,101 to 1000,–,100 to 2000,–
"CN(CCC(F)(F)F)c1c(O[C@H]2CC[C@H](N)CC2)ccc2c1CC(C)(C)c1c(N)ncnc1-2 [Example 43, 8-(trans-4-aminocyclohexoxy)-N7,5,5-trimethyl-N7-(3,3,3-trifluoropropyl)-6H-benzo[h]quinazoline-4,7-diamine]",100 to 2000,30 to 100,–,100 to 2000,–
"COc1ccc2c(c1N1CC(O)C1)CC(C)(C)c1c(N)ncnc1-2 [Example 25, 1-(4-amino-8-methoxy-5,5-dimethyl-6H-benzo[h]quinazolin-7-yl)azetidin-3-ol]",100 to 2000,101 to 1000,–,100 to 2000,–
"CC1(C)Cc2c(ccc(O[C@H]3CC[C@H](N)CC3)c2NC2CC2)-c2ncnc(N)c21 [Example 84, 8-(trans-4-aminocyclohexoxy)-N7-cyclopropyl-5,5-dimethyl-6H-benzo[h]quinazoline-4,7-diamine]",100 to 2000,30 to 100,–,< 100,–
"CN(CCOC(F)(F)F)c1c(O[C@H]2CC[C@H](N)CC2)ccc2c1CC(C)(C)c1c(N)ncnc1-2 [Example 47, 8-(trans-4-aminocyclohexoxy)-N7,5,5-trimethyl-N7-[2-(trifluoromethoxy)ethyl]-6H-benzo[h]quinazoline-4,7-diamine]",100 to 2000,30 to 100,–,< 100,–

# Now from value to molecule, other results behind:
"GI50 (MDA-MB-231 cells; Homo sapiens, MDA-MB-231, 72 h) [nM]",IC50 (recombinant human CLK3) [nM],GI50 (MDA-MB-231 cells; 72 hours) [nM],Structure (SMILES),"GI50 (CAL-51 cells; Homo sapiens, CAL-51, 72 h) [nM]",GI50 (CAL-51 cells; 72 hours) [nM]
100 to 2000,101 to 1000,–,"CN(Cc1cccnc1)c1c(O[C@H]2CC[C@H](N)CC2)ccc2c1CC(C)(C)c1c(N)ncnc1-2 [Example 107, 8-(trans-4-aminocyclohexoxy)-N7,5,5-trimethyl-N7-(3-pyridylmethyl)-6H-benzo[h]quinazoline-4,7-diamine]",100 to 2000,–
100 to 2000,30 to 100,–,"CC1(C)Cc2c(ccc(Br)c2NC[C@@H]2CN(CCO)C(=O)O2)-c2ncnc(N)c21 [Example 127, (5R)-5-[[(4-amino-8-bromo-5,5-dimethyl-6H-benzo[h]quinazolin-7-yl)amino]methyl]-3-(2-hydroxyethyl)oxazolidin-2-one]",100 to 2000,–
100 to 2000,< 30,–,"CC(C)N(C)c1c(O[C@H]2CC[C@H](N)CC2)ccc2c1CC(C)(C)c1c(N)ncnc1-2 [Example 102, 8-(trans-4-aminocyclohexoxy)-N7-isopropyl-N7,5,5-trimethyl-6H-benzo[h]quinazoline-4,7-diamine]",< 100,–
100 to 2000,30 to 100,–,"CN(CCC#N)c1cccc2c1CC(C)(C)c1c(N)ncnc1-2 [Example 109, 3-[(4-amino-5,5-dimethyl-6H-benzo[h]quinazolin-7-yl)-methyl-amino]propanenitrile]",< 100,–
< 100,< 30,–,"CN(C)CCOc1ccc2c(c1N(C)CCC#N)CC(C)(C)c1c(N)ncnc1-2 [Example 123, 3-[[4-amino-8-[2-(dimethylamino)ethoxy]-5,5-dimethyl-6H-benzo[h]quinazolin-7-yl]-methyl-amino]propanenitrile]",< 100,–
100 to 2000,30 to 100,–,"CN(CC#N)S(=O)(=O)c1c(O[C@H]2CC[C@H](N)CC2)ccc2c1CC(C)(C)c1c(N)ncnc1-2 [Example 113, 4-amino-8-(trans-4-aminocyclohexoxy)-N-(cyanomethyl)-N,5,5-trimethyl-6H-benzo[h]quinazoline-7-sulfonamide]",100 to 2000,–
100 to 2000,101 to 1000,–,"CCCCN(C)c1c(O[C@H]2CC[C@H](N)CC2)ccc2c1CC(C)(C)c1c(N)ncnc1-2 [Example 100, 8-(trans-4-aminocyclohexoxy)-N7-butyl-N7,5,5-trimethyl-6H-benzo[h]quinazoline-4,7-diamine]",100 to 2000,–
